From US20250177410A1, “COMBINATION THERAPIES COMPRISING A SOS1 INHIBITOR AND AN EGFR INHIBITOR” (Mirati Therapeutics, Inc., priority 2022, published 2025)
Like-named read-outs stand apart in the source and are kept apart here.

Legend:
[1] = system: PC9 cells harboring EGFR exon 19del (E746_A750del) mutation
Method: (§1) Immunocompromised NOD/SCID mice are inoculated in the right hind flank with PC9 cells harboring EGFR exon 19del (E746_A750del) mutation. When tumor volumes reach between 100-150 mm^3 in size, the mice are divided into four groups of 4-12 mice each. The first group is administered vehicle only. […] The fourth and fifth groups are administered the single agent dose of the EGFR inhibitor in combination with the single agent dose of the SOS1 inhibitor. The treatment period was 27 days. Tumor volumes are measured using a caliper every two-three days and tumor volumes are calculated by the formula: 0.5×(Length×Width) 2.
30 NOD/SCID mice were inoculated in the right hind limb with 5×10^6 PC9 cells.

[2] = system: NCI-H1975 cells harboring EGFR L585R/T790M mutations
Method: as §1, with “nude/nude” for “NOD/SCID”, “NCI-H1975” for “PC9”, “L585R/T790M mutations.” for “exon 19del (E746_A750del) mutation.”, “200-400” for “100-150”, “21” for “27”, “0.5×(Length×Width)2.” for “0.5×(Length×Width) 2.”
30 nude/nude mice were inoculated in the right hind limb with 5×10^6 NCI-H1975 cells.

[3] = Study Day 3, MRTX0902 50 mg/kg p.o.
[4] = Study Day 10, MRTX0902 50 mg/kg p.o.
[5] = Study Day 14, MRTX0902 50 mg/kg p.o.
[6] = Study Day 21, MRTX0902 50 mg/kg p.o.
[7] = Study Day 3, Osimertinib 2.5 mg/kg QD p.o.
[8] = Study Day 10, Osimertinib 5 mg/kg QD p.o.
[9] = Study Day 21, Osimertinib 5 mg/kg QD p.o.

## Cc1c(C#N)cccc1[C@@H](C)Nc1nnc(C)c2cnc(N3CCOCC3)cc12 [MRTX0902, (R)-2-methyl-3-(1-((4-methyl-7-morpholinopyrido[3,4-d]pyridazin-1-yl)amino)ethyl)benzonitrile]
[1]; MRTX0902 50 mg/kg BID
  tumor growth inhibition: 54%
[1]; [3]
  Average Tumor Volume: 197 mm^3
[1]; Study Day 6, MRTX0902 50 mg/kg p.o.
  Average Tumor Volume: 247 mm^3
[1]; [4]
  Average Tumor Volume: 330 mm^3
[1]; [5]
  Average Tumor Volume: 442 mm^3
[1]; Study Day 18, MRTX0902 50 mg/kg p.o.
  Average Tumor Volume: 578 mm^3
[1]; [6]
  Average Tumor Volume: 661 mm^3
[1]; Study Day 24, MRTX0902 50 mg/kg p.o.
  Average Tumor Volume: 755 mm^3
[1]; Study Day 27, MRTX0902 50 mg/kg p.o.
  Average Tumor Volume: 798 mm^3
[1]; Study Day −1, MRTX0902 50 mg/kg p.o.
  Average Tumor Volume: 112 mm^3
[2]; MRTX0902 50 mg/kg BID single agent
  tumor growth inhibition: 26%
[2]; Study Day 0, MRTX0902 50 mg/kg p.o.
  Average Tumor Volume: 285 mm^3
[2]; [3]
  Average Tumor Volume: 504 mm^3
[2]; Study Day 7, MRTX0902 50 mg/kg p.o.
  Average Tumor Volume: 808 mm^3
[2]; [4]
  Average Tumor Volume: 1028 mm^3
[2]; [5]
  Average Tumor Volume: 1387 mm^3
[2]; Study Day 17, MRTX0902 50 mg/kg p.o.
  Average Tumor Volume: 1527 mm^3
[2]; [6]
  Average Tumor Volume: 1372 mm^3

## C=CC(=O)Nc1cc(Nc2nccc(-c3cn(C)c4ccccc34)n2)c(OC)cc1N(C)CCN(C)C [Osimertinib, osimertinib]
[1]; [7]
  Average Tumor Volume: 124 mm^3
[1]; Study Day 6, Osimertinib 5 mg/kg QD p.o.
  Average Tumor Volume: 95 mm^3
[1]; [8]
  Average Tumor Volume: 69 mm^3
[1]; Study Day 14, Osimertinib 5 mg/kg QD p.o.
  Average Tumor Volume: 65 mm^3
[1]; Study Day 18, Osimertinib 2.5 mg/kg QD p.o.
  Average Tumor Volume: 150 mm^3
[1]; Study Day 18, Osimertinib 5 mg/kg QD p.o.
  Average Tumor Volume: 60 mm^3
[1]; [9]
  Average Tumor Volume: 62 mm^3
[1]; Study Day 24, Osimertinib 2.5 mg/kg QD p.o.
  Average Tumor Volume: 209 mm^3
[1]; Study Day 27, Osimertinib 2.5 mg/kg QD p.o.
  Average Tumor Volume: 214 mm^3
[1]; Study Day −1, Osimertinib 2.5 mg/kg QD p.o.
  Average Tumor Volume: 108 mm^3
[1]; mouse, in vivo
  tumor growth: 92.8%
[1]; osimertinib 5 mg/kg single agent, day 27
  tumor regression: −32.5%
[2]; Study Day 0, Osimertinib 2.5 mg/kg QD p.o.
  Average Tumor Volume: 286 mm^3
[2]; Study Day 0, Osimertinib 5 mg/kg QD p.o.
  Average Tumor Volume: 286 mm^3
[2]; [7]
  Average Tumor Volume: 288 mm^3
[2]; Study Day 3, Osimertinib 5 mg/kg QD p.o.
  Average Tumor Volume: 173 mm^3
[2]; Study Day 7, Osimertinib 2.5 mg/kg QD p.o.
  Average Tumor Volume: 325 mm^3
[2]; [8]
  Average Tumor Volume: 70 mm^3
[2]; Study Day 17, Osimertinib 2.5 mg/kg QD p.o.
  Average Tumor Volume: 468 mm^3
[2]; Study Day 17, Osimertinib 5 mg/kg QD p.o.
  Average Tumor Volume: 83 mm^3
[2]; [9]
  Average Tumor Volume: 135 mm^3
[2]; mouse, in vivo
  tumor growth: 89%
[2]; osimertinib 5 mg/kg single agent, day 17
  tumor regression: −71%
